# Reference: ChEMBL document CHEMBL1121567, “Synthesis of some 5-phenylhexahydroazepino[4,5-b]indoles as potential neuroleptic agents” (1980)
# Columns and labels:
# [1] = test system: Mus musculus; experiment: Effective dose to reverse tetrabenazine ptosis in mouse when administered po; assay type: functional
# [2] = test system: Rattus norvegicus; experiment: Effective dose to block muricidal behavior in rat when administered ip; assay type: functional
Compound,ED50 [1] [mg/kg],ED50 [2] [mg/kg]
COc1ccc2[nH]c3c(c2c1)CCNCC3c1ccccc1 (centres undefined),> 30,12.2
COc1ccc2[nH]c3c(c2c1)CCN(C)CC3c1ccccc1 (centres undefined),1.9,> 10
CN(C)CCCN1c2ccccc2CCc2ccccc21 [IMIPRAMINE],2,20.2
Cn1c2c(c3ccccc31)CCNCC2c1ccccc1 (centres undefined),> 30,> 10
CN1CCc2c(n(C)c3ccccc23)C(c2ccccc2)C1 (centres undefined),> 30,> 20
CN1CCc2c([nH]c3ccccc23)C(c2ccccc2)C1 (centres undefined),1,> 10
c1ccc(C2CNCCc3c2[nH]c2ccccc32)cc1 (centres undefined),> 30,2.1
